From patent US12577273B2, “Small molecule modulators of gut bacterial bile acid metabolism” (priority 2019, dated 2026)
“And” between values parts separate entries of the source, which are not always exact repeats. Equal values may be shown once. “Also recorded” adds a separate entry of the source.

Tests used:
B. theta BSH [1] = target: T1, B. theta BSH (Bacteroides thetaiotaomicron, UniProt Q8A600); experiment: Enzyme kinetics (ninhydrin assay), B. theta BSH; assay type: biochemical; settings: for deconjugation of substrate by purified B. theta BSH (in words): ninhydrin-based assay
Procedure: (§1) Enzyme Kinetics. […] This solution was preheated to 37° C. in a water bath. 20 μL of a conjugated bile acid in DMSO at appropriate concentration was preheated to 37° C. in a water bath and added to the above solution. […] The cloudy solution was centrifuged at 4,200 g for 15 mins. 10 μL of the supernatant was added to 190 μL of ninhydrin mix (15 mL of 1% [wt/vol] ninhydrin in 0.5 M sodium citrate at pH 5.5, 36 mL glycerol and 6 mL 0.5 M sodium citrate buffer at pH 5.5) and the mixture was heated to 100° C. in a BioRad thermocycler for 18 mins. The obtained solution was cooled at 4° C. for 20 mins and absorbance was measured at 570 nm using a spectrophotometer (Molecular Devices).

B. longum BSH [2] = target: T2, B. longum BSH (Bifidobacterium longum, UniProt Q9KK62); experiment: Enzyme kinetics (ninhydrin assay), B. longum BSH; settings: substrate of B. longum BSH
T2 sequence (Q9KK62 1-317): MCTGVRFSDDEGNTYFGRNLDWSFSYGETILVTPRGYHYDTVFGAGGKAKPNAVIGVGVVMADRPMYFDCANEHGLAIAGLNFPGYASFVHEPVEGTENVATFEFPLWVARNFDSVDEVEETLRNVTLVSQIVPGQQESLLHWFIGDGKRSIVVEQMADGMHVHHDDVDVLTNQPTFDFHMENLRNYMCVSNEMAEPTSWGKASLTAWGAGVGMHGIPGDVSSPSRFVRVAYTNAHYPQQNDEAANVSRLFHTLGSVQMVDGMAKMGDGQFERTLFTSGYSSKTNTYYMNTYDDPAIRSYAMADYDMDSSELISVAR
Procedure: as §1

B. theta cultures = experiment: BSH inhibition in growing B. theta cultures, single substrate (GUDCA or TUDCA); assay type: cell-based, Bacteroides thetaiotaomicron; settings: 10 μM inhibitor; for BSH inhibition in B. theta cultures compared to 7 (in words): 100 μM TUDCA; for deconjugation of GUDCA in growing B. theta cultures (in words): 100 μM GUDCA
B. theta BSH [3] = target: T1, B. theta BSH; experiment: Inhibitor screen using rBSH, B. theta BSH (UPLC-MS % deconjugation); settings: 100 μM inhibitor; for inhibition of B. theta BSH (in words): 30 min preincubation, monitored over 21 hours; for % deconjugation of TDCA / % deconjugation of TUDCA / % deconjugation of TβMCA / % deconjugation of TCA: 200 nM rBSH, replicates 1-3
[4] = test system: three Gram negative and three Gram positive strains of human gut bacteria; experiment: BSH inhibition in growing cultures of six gut bacterial strains (overall statements); assay type: cell-based; settings: 100 μM inhibitor, 100 μM conjugated bile acid mixture
[5] = test system: BSH activity in conventional mouse feces; experiment: Screen of inhibitors in conventional mouse feces; assay type: biochemical; settings: 20 μM inhibitor, 30 min, then GCDCA-d4 100 μM, 18 hours
Procedure: Screen of Inhibitors in Conventional Mouse Feces. […] The tubes were then frozen in dry ice for 5 mins and upon thawing were diluted with an equal volume of methanol. […] The supernatant was removed into a clean eppendorf tube and centrifuged again. […] The concentration of product detected from these assays was reported directly.

B. longum BSH [6] = target: T2, B. longum BSH; experiment: Inhibitor screen using rBSH, B. longum BSH (UPLC-MS % deconjugation); assay type: biochemical, Bifidobacterium longum SBT2928; parameters: His6 (C); made in house; host or cells: Escherichia coli (as for the B. theta enzyme); settings: 100 μM inhibitor; for % deconjugation of TCA / % deconjugation of TDCA / % deconjugation of TUDCA / % deconjugation of TβMCA: 200 nM rBSH, bile acid pool, replicates 1-3
Procedure: B. longum rBSH. Recombinant BSH from B. longum SBT2928 was expressed and purified as above, except 0.25 mM IPTG was used for protein expression and 1 mM TCEP for protein purification.
Inhibitor Screen Using rBSHs.

[7] = Table 1, substrate of B. Theta BSH, PBS pH 7.5, 37° C.
[8] = Table 3, substrate of B. theta BSH, mean ± SEM, n = 3
[9] = FIG. 2a, 2 hours, bile acid pool
[10] = FIG. 2a, 2 hours, pool of four tauro conjugated bile acids 25 μM each
[11] = FIG. 2a, 21 hours, bile acid pool
[12] = Supplementary FIG. 3a, 5 hours, bile acid pool

C[C@H](CCC(=O)NCCS(=O)(=O)O)[C@H]1CC[C@H]2[C@@H]3CC[C@@H]4C[C@H](O)CC[C@]4(C)[C@H]3C[C@H](O)[C@]12C [TDCA, taurodeoxycholic acid]
Kcat (B. theta BSH [1]; [7]): 1.682 s⁻¹ | Km (B. theta BSH [1]; [7]): 3.35 mM | Kcat (B. theta BSH [1]; [8]): 0.215 ± 0.01 s⁻¹ | Km (B. theta BSH [1]; [8]): 3.4 ± 0.6 mM | deconjugation of substrate by purified B. theta BSH (in words) (B. theta BSH [1]): preference for TDCA deconjugation | Kcat (B. longum BSH [2]; Table 1, PBS pH 7.5, 37° C.): 1.695 s⁻¹ | Kcat (B. longum BSH [2]; Table 3, mean ± SEM, n = 3): 0.0583 ± 0.0017 s⁻¹

CC(=O)CC[C@@H](C)[C@H]1CC[C@H]2[C@@H]3[C@H](O)C[C@@H]4C[C@H](O)CC[C@]4(C)[C@H]3CC[C@]12C [Compound 8]
BSH inhibition in B. theta cultures compared to 7 (in words) (B. theta cultures): less potent inhibitors of B. theta BSH than compound 7; also recorded: did not display BSH inhibition against either recombinant protein or B. theta cultures | inhibition of B. theta BSH (in words) (B. theta BSH [3]): did not display BSH inhibition; also recorded: did not display BSH inhibition against either recombinant protein or B. theta cultures

C#CC(=O)CC[C@@H](C)[C@H]1CC[C@H]2[C@@H]3[C@H](O)C[C@@H]4C[C@H](O)CC[C@]4(C)[C@H]3CC[C@]12C [Compound 4]
% deconjugation of TDCA (B. theta BSH [3]; [9]): 97.26% and 96.13% and 94.56% | % deconjugation of TUDCA (B. theta BSH [3]; [9]): 94.07% and 91.62% and 89.81% | % deconjugation of TβMCA (B. theta BSH [3]; [9]): 32.07% and 29.34% and 22.69% | % deconjugation of TCA (B. theta BSH [3]; [10]): 0.47% and 1.15% and 0.30% | % deconjugation of TCA (B. theta BSH [3]; [11]): 1.50% and 0.85% and 1.80% | % deconjugation of TDCA (B. theta BSH [3]; [11]): 95.87% and 95.61% and 96.21% | % deconjugation of TUDCA (B. theta BSH [3]; [11]): 98.54% and 97.31% and 97.80% | % deconjugation of TβMCA (B. theta BSH [3]; [11]): 47.65% and 32.41% and 43.47% | % deconjugation of TCA (B. theta BSH [3]; [12]): 0.40% and 1.92% and 1.29% | % deconjugation of TDCA (B. theta BSH [3]; [12]): 99.59% and 99.50% and 99.01% | % deconjugation of TUDCA (B. theta BSH [3]; [12]): 98.43% and 98.54% and 97.17% | % deconjugation of TβMCA (B. theta BSH [3]; [12]): 26.17% and 45.65% and 37.57%

Cc1cc2nc3c(=O)[nH]c(=O)nc-3n(C[C@H](O)[C@H](O)[C@H](O)CO)c2cc1C [Riboflavin, riboflavin, reference compound]
deconjugation / BSH inhibition in cultures of the six bacterial strains (in words) [4]: neither riboflavin nor CAPE displayed significant inhibitory activity against any of the Gram negative strains | inhibition of B. theta BSH (in words) (B. theta BSH [3]): did not display any inhibitory activity

C[C@H](CCC(=O)NCCS(=O)(=O)O)[C@H]1CC[C@H]2[C@@H]3[C@H](O)C[C@@H]4C[C@H](O)CC[C@]4(C)[C@H]3CC[C@]12C [TCDCA, taurochenodeoxycholic acid]
Kcat (B. theta BSH [1]; [7]): 1.69 s⁻¹ | Km (B. theta BSH [1]; [7]): 2.86 mM | Kcat (B. theta BSH [1]; [8]): 0.0717 ± 0.01 s⁻¹ | Km (B. theta BSH [1]; [8]): 2.9 ± 1.8 mM | Kcat (B. longum BSH [2]; Table 1, PBS pH 7.5, 37° C.): 1.807 s⁻¹ | Km (B. longum BSH [2]; Table 1, PBS pH 7.5, 37° C.): 7.75 mM | Kcat (B. longum BSH [2]; Table 3, mean ± SEM, n = 3): 0.0767 ± 0.01 s⁻¹ | Km (B. longum BSH [2]; Table 3, mean ± SEM, n = 3): 7 ± 2.3 mM

C[C@H](CCC(=O)NCCS(=O)(=O)O)[C@H]1CC[C@H]2[C@@H]3[C@@H](O)C[C@@H]4C[C@H](O)CC[C@]4(C)[C@H]3CC[C@]12C [TUDCA, tauroursodeoxycholic acid]
Kcat (B. theta BSH [1]; [7]): 1.807 s⁻¹ | Km (B. theta BSH [1]; [7]): 8.23 mM | Kcat (B. theta BSH [1]; [8]): 0.255 ± 0.013 s⁻¹ | Km (B. theta BSH [1]; [8]): 8.2 ± 1 mM | deconjugation of substrate by purified B. theta BSH (in words) (B. theta BSH [1]): displayed a preference | Kcat (B. longum BSH [2]; Table 1, PBS pH 7.5, 37° C.): 1.608 s⁻¹ | Kcat (B. longum BSH [2]; Table 3, mean ± SEM, n = 3): 0.015 ± 0.0033 s⁻¹

C[C@H](CCC(=O)NCCS(=O)(=O)O)[C@H]1CC[C@H]2[C@@H]3[C@H](O)C[C@@H]4C[C@H](O)CC[C@]4(C)[C@H]3C[C@H](O)[C@]12C [TCA, taurocholic acid]
deconjugation of substrate by purified B. theta BSH (in words) (B. theta BSH [1]): did not deconjugate | Kcat (B. longum BSH [2]; Table 1, PBS pH 7.5, 37° C.): 1.82 s⁻¹

C[C@H](CCN=C=S)[C@H]1CC[C@H]2[C@@H]3[C@H](O)C[C@@H]4C[C@H](O)CC[C@]4(C)[C@H]3CC[C@]12C [Compound 1]
BSH activity in resuspended conventional mouse feces (in words) [5]: moderate BSH inhibition; also recorded: decreased deconjugation | inhibition of B. theta BSH (in words) (B. theta BSH [3]): modest inhibition | % deconjugation of TDCA (B. theta BSH [3]; [9]): 51.40% and 46.10% and 43.43% | % deconjugation of TUDCA (B. theta BSH [3]; [9]): 37.96% and 35.92% and 33.34% | % deconjugation of TβMCA (B. theta BSH [3]; [9]): 3.72% and 3.29% and 3.28% | % deconjugation of TCA (B. theta BSH [3]; [10]): 0.12% and 0.17% and 0.29% | % deconjugation of TCA (B. theta BSH [3]; [11]): 0.12% and 0.17% and 0.15% | % deconjugation of TDCA (B. theta BSH [3]; [11]): 45.18% and 51.87% and 45.19% | % deconjugation of TUDCA (B. theta BSH [3]; [11]): 34.40% and 41.24% and 37.45% | % deconjugation of TβMCA (B. theta BSH [3]; [11]): 3.18% and 4.28% and 3.11% | % deconjugation of TCA (B. theta BSH [3]; [12]): 0.25% and 0.00% and 0.21% | % deconjugation of TDCA (B. theta BSH [3]; [12]): 52.56% and 51.54% and 45.63% | % deconjugation of TUDCA (B. theta BSH [3]; [12]): 38.73% and 40.02% and 35.99% | % deconjugation of TβMCA (B. theta BSH [3]; [12]): 4.42% and 4.47% and 3.37% | inhibition of B. longum BSH (in words) (B. longum BSH [6]; 2 h, 5 h and 21 h timepoints): modest inhibition | % deconjugation of TCA (B. longum BSH [6]; FIG. 2b, 2 hours): 0.10% and 0.89% and 0.43% | % deconjugation of TDCA (B. longum BSH [6]; FIG. 2b, 2 hours): 7.25% and 4.34% and 2.20% | % deconjugation of TUDCA (B. longum BSH [6]; FIG. 2b, 2 hours): 2.12% and 1.09% and 0.61% | % deconjugation of TβMCA (B. longum BSH [6]; FIG. 2b, 2 hours): 2.49% and 0.05% and 0.03% | % deconjugation of TCA (B. longum BSH [6]; FIG. 2b, 21 hours): 9.02% and 3.00% and 8.03% | % deconjugation of TDCA (B. longum BSH [6]; FIG. 2b, 21 hours): 23.33% and 14.91% and 20.42% | % deconjugation of TUDCA (B. longum BSH [6]; FIG. 2b, 21 hours): 4.57% and 2.48% and 3.66% | % deconjugation of TβMCA (B. longum BSH [6]; FIG. 2b, 21 hours): 0.21% and 0.13% and 0.28% | % deconjugation of TCA (B. longum BSH [6]; Supplementary FIG. 3b, 5 hours): 4.13% and 4.57% and 4.31% | % deconjugation of TDCA (B. longum BSH [6]; Supplementary FIG. 3b, 5 hours): 9.85% and 11.26% and 11.96% | % deconjugation of TUDCA (B. longum BSH [6]; Supplementary FIG. 3b, 5 hours): 2.44% and 2.49% and 2.64% | % deconjugation of TβMCA (B. longum BSH [6]; Supplementary FIG. 3b, 5 hours): 0.10% and 0.11% (2×)

C[C@H](CCC(=O)CF)[C@H]1CC[C@H]2[C@@H]3[C@H](O)C[C@@H]4C[C@H](O)CC[C@]4(C)[C@H]3C[C@H](O)[C@]12C [Compound 9]
deconjugation of GUDCA in growing B. theta cultures (in words) (B. theta cultures): significantly diminished activity to inhibit B. theta BSH | deconjugation of GUDCA in growing B. theta cultures (in words) (B. theta cultures; listed as compound 9): significant deconjugation was observed | BSH inhibition in B. theta cultures compared to 7 (in words) (B. theta cultures): less potent inhibitors of B. theta BSH than compound 7; also recorded: significantly reduced ability to inhibit BSH deconjugation
